In patent US6989435B2, “Compounds and methods to inhibit or augment an inflammatory response” (Cambridge University Technical Services Ltd., priority 1997, dated 2006):

Assays:
Format in all cases: cell-based, human
[1] = system: MCP-1 induced THP-1 migration; test: Trans-well THP-1 migration assay, MCP-1 as chemoattractant; conditions: concentrations above 50 μM
Method: (§1) FIG. 1 is a schematic of the trans-well migration assay. In most experiments, the peptide (wavy line) is added to the upper well with about 50,000 cells (O). The upper and lower wells are separated by a 5 μm or 8 μm pore size PVP-free membrane (- - - -). Chemokine (●) is added to the lower well. After 4 hours, the number of cells that have migrated through the membrane are measured (◯ in lower well).
To determine whether an agent inhibits a chemokine-induced activity, such as macrophage recruitment, varying amounts of the agent are mixed with cells in the presence of a known chemoattractant. For example, a range of known concentrations of an agent, e.g., a chemokine peptide, is incubated with a defined number (e.g., 10^4-10^6) of human THP-1 monocyte cells in individual wells of the top compartment of a trans-well plate. Chemokine (such as MCP-1, MIP1α, IL8 or SDF-1α), at a concentration known to cause significant migration of THP-1 cells in the trans-well migration assay, is placed in the lower compartment (FIG. 1). Cells are then incubated at 37° C. for a period sufficient to allow migration, e.g., 4 hours. After incubation, the cells are gently removed from the top of the filter with a pipette, 20 μl of 20 mM EDTA in simple PBS is added into each top well, and incubated for 20 minutes at 4° C. The filter is carefully flushed with media using a gentle flow, and removed. A standard curve consisting of a two-fold dilution series of THP-1 cells (in 29 μl) is prepared to accurately quantify the number of cells that have migrated. Migrated cells are stained with 3 μl of MTT stock dye solution which is added directly into each well (5 mg/ml in RPMI-1640 without phenol red, Sigma Chemical Co.) and incubated at 37° C. for 4 hours. The media is carefully aspirated from each well, and the converted dye is solubilized by 20 μl of DMSO. Absorbance of converted dye is measured at a wavelength of 595 nm using an ELISA plate reader. The number of migrated cells in each well is then determined by interpolation of the standard curve (see also Imai et al., J. Biol. Chem., 272, 15036 (1997)).
Any method suitable for counting cells can be used, for example, counting with a hemocytometer, incubation of the cells with MTT (see above), or FACS analysis. A negative control assay is also performed, using TGF-β or another non-chemokine chemoattractant (e.g., IL1β or TNFα). To assess whether the agent is cytotoxic, the same concentrations of agent are incubated with THP-1 cells. Agents which 1) are not cytotoxic at levels which inhibit migration, 2) are ineffective at inhibiting the negative control-induced migration, and 3) reduce or inhibit chemokine-induced THP-1 migration, are agents which fall within the scope of the invention.
For this assay, THP-1 cells were maintained at a density of 4×10^5 cells per ml in RPMI-1640 supplemented with 10% fetal calf serum+20 μM 2-mercaptoethanol. Chemotaxis was induced in a 96-well disposable chemotaxis chamber fitted with a […] polycarbonate filter (PVP free, ChemoTX, Neuroprobe Inc., Cabin John). Twenty-nine μl of chemoattractant (recombinant human chemokine; 50 ng/ml, i.e., 5.9 nM) or control (100 ng/ml TGFβ) was added to the lower compartment of each well. The framed filter was aligned with the holes in the corner of the filter frame and placed over the wells. Five×10^4 THP-1 cells in 25 μl of RPMI-1640 culture media were added to the upper compartment. Peptides were dissolved in Milli Q water and then serially diluted in culture medium. In most cases, the serially diluted peptides were added to the upper compartment of the chemotaxis chamber. The chamber was incubated at 37° C. in a humidified atmosphere of 5% CO2 for 4 hours.
After incubation, the cells were gently removed from the top of the filter with a pipette, 20 μl of 20 mM EDTA in PBS was added into each top well, and the mixture was incubated for 20 minutes at 4° C. The filter was then carefully flushed with media using a gentle flow, and removed. […]

[2] = system: chemokine-induced THP-1 migration (MCP-1, MIP1α, IL8, SDF1α); test: Trans-well THP-1 migration assay, across the chemokines tested
Method: To determine whether an agent inhibits a chemokine-induced activity, such as macrophage recruitment, varying amounts of the agent are mixed with cells in the presence of a known chemoattractant. […] Chemokine (such as MCP-1, MIP1α, IL8 or SDF-1α), at a concentration known to cause significant migration of THP-1 cells in the trans-well migration assay, is placed in the lower compartment (FIG. 1). […] After incubation, the cells are gently removed from the top of the filter with a pipette, 20 μl of 20 mM EDTA in simple PBS is added into each top well, and incubated for 20 minutes at 4° C. The filter is carefully flushed with media using a gentle flow, and removed. […] The media is carefully aspirated from each well, and the converted dye is solubilized by 20 μl of DMSO. Absorbance of converted dye is measured at a wavelength of 595 nm using an ELISA plate reader. The number of migrated cells in each well is then determined by interpolation of the standard curve (see also Imai et al., J. Biol. Chem., 272, 15036 (1997)). […] The framed filter was aligned with the holes in the corner of the filter frame and placed over the wells. Five×10^4 THP-1 cells in 25 μl of RPMI-1640 culture media were added to the upper compartment. Peptides were dissolved in Milli Q water and then serially diluted in culture medium. In most cases, the serially diluted peptides were added to the upper compartment of the chemotaxis chamber. […] After incubation, the cells were gently removed from the top of the filter with a pipette, 20 μl of 20 mM EDTA in PBS was added into each top well, and the mixture was incubated for 20 minutes at 4° C. The filter was then carefully flushed with media using a gentle flow, and removed. […] The media was carefully aspirated from each well, and the converted dye was solubilized by 20 μl of DMSO. Absorbance of converted dye was measured at a wavelength of 595 nm using an ELISA plate reader. […] Representative chemokines included a beta-chemokine (“CC”), MIP-1α, and two alpha-chemokines (“CXC”), IL-8 and SDF-1α. […]

[3] = system: MIP1α induced THP-1 migration; test: Trans-well THP-1 migration assay, MIP1α as chemoattractant; conditions: Table 4(b); 100 μM peptide; n.s. = no statistically significant inhibition
Method: as §1
To determine whether an agent inhibits a chemokine-induced activity, such as macrophage recruitment, varying amounts of the agent are mixed with cells in the presence of a known chemoattractant. For example, a range of known concentrations of an agent, e.g., a chemokine peptide, is incubated with a defined number (e.g., 10^4-10^6) of human THP-1 monocyte cells in individual wells of the top compartment of a trans-well plate. […] A standard curve consisting of a two-fold dilution series of THP-1 cells (in 29 μl) is prepared to accurately quantify the number of cells that have migrated. […] Absorbance of converted dye is measured at a wavelength of 595 nm using an ELISA plate reader. The number of migrated cells in each well is then determined by interpolation of the standard curve (see also Imai et al., J. Biol. Chem., 272, 15036 (1997)). […]

EICADPKQKWVQ [Peptide 3]
effect on MCP-1 induced THP-1 migration at concentrations above 50 μM [1]: abolished all of the MCP-1 induced THP-1 migration
inhibition of migration induced by any of the chemokines of either family ([2]; 100 μM, THP-1): > 99%
CC SPECIFICITY ([2]; Table 7, average inhibitory ED50 versus SDF1 and IL8 divided by average inhibitory ED50 versus MCP-1 and MIP1α): 1.5
Extent of inhibition of THP-1 migration at 100 μM, MIP1α [3]: 99%
